According to patent US20190211020A1 (Agency for Science, Technology and Research, priority 2012, published 2019):
Where two headings read alike, the source gives them in different places.

Experiments:
[1] = Pharmacokinetics assays (plasma and brain); format: in vivo; set-up: AUC(0-t) / AUC(0-inf): concentration or dose not given beside the values; conditions: for AUC(0-t): read-out: Plasma AUC last; for Cmax: species, dose and route not given; for Plasma/Brain Ratio: in vivo
[2] = tested on: eIF4E Ser209 phosphorylation in Hela cells; assay: MNK cell-based assay (AlphaScreen SureFire, eIF4E Ser209 phosphorylation); conditions: Homo sapiens, read-out: IC50 Hela
Summary of the method: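 Hela cells (30,000/well) exposed to test compound in serum-free medium for 2 h at 37 °C, then lysed. Phospho-Ser209 eIF4E quantified by AlphaScreen SureFire; IC50 obtained by non-linear regression of signal versus log compound concentration.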

[3] = tested on: K562 cells (myelogenous leukemia) over-expressing eIF4E; assay: Cell cytotoxicity assay (CellTiter-Glo), K562; format: cell-based; conditions: for IC50: Homo sapiens, cell viability; for change of IC50 when treatment duration was extended from 48 hours to 6 days, K562: K562 cells over-expressing eIF4E
Procedure: (§1) Cancer cell lines, MV-4-11 (leukemia), P116.c139 (acute T cell leukemia) and D1.1 (acute T cell leukemia), were purchased from ATCC and cultured according to supplier's recommendations. K562 cells (myelogenous leukemia) over-expressing eIF4E, were also used for the cytotoxicity assay. For cells treated for 48 hours, 5000 cells were seeded in 70 μl of growth medium in black, flat-bottom 96-well plate. For cells treated for six days, 1000 cells were seeded in 70 μl of growth medium in black, flat-bottom 96-well plate. […] 50 μl of the diluted compounds was added to the cells and incubated at 37° C. in 5% CO2. After 48 hours or six days treatment, cell viability was determined by CellTiter-Glo Luminescent Cell Viability Assay (Promega, Madison, Wis.). 120 μl of the reagent was added to the cells and luminescence was measured using Tecan Safire Reader. Data was analysed with Graphpad Prism software and the figures represented indicate the half maximal inhibitory concentration (IC50). Error bars denote standard deviation (SD).

MV-4-11 (leukemia) = assay: Cell cytotoxicity assay (CellTiter-Glo), MV-4-11; format: cell-based; conditions: Homo sapiens, cell viability
Procedure: as §1

[4] = tested on: D1.1 (acute T cell leukemia); assay: Cell cytotoxicity assay (CellTiter-Glo), D1.1; format: cell-based; conditions: for IC50: T-cell, cell viability
Procedure: as §1

[5] = tested on: P116.c139 (acute T cell leukemia); assay: Cell cytotoxicity assay (CellTiter-Glo), P116.c139; format: cell-based; conditions: for IC50: T-cell, cell viability
Procedure: as §1

[6] = brain, read-out: Brain T1/2 (converted)
[7] = plasma, read-out: Plasma T1/2 (converted)
[8] = eIF4E Ser209 phosphorylation, Hela cells, 2 hours
[9] = K562, 144 h, 6 days, read-out: IC50 after 6 days of treatment, K562
[10] = K562, 48 hours, read-out: IC50 after 48 hours of treatment, K562
[11] = MV4-11, 144 h, 6 days, read-out: IC50 after 6 days of treatment, MV-4-11
[12] = MV4-11, 48 hours, read-out: IC50 after 48 hours of treatment, MV-4-11
[13] = 144 h, 6 days, read-out: IC50 after 6 days of treatment, D1.1
[14] = 48 hours, read-out: IC50 after 48 hours of treatment, D1.1
[15] = 144 h, 6 days, read-out: IC50 after 6 days of treatment, P116.c139
[16] = 48 hours, read-out: IC50 after 48 hours of treatment, P116.c139

| Brain AUC inf ([1]; brain) [ng·h/g] | Brain AUC last ([1]; brain) [ng·h/g] | Brain Cmax ([1]; brain) [ng/g] | half-life [1, 6] [h] | Tmax ([1]; brain, read-out: Brain Tmax) [h] | AUC(0-inf) ([1]; plasma) [ng·h/mL] | AUC(0-t) ([1]; plasma) [ng·h/mL] | half-life [1, 7] [h] | Tmax ([1]; plasma, read-out: Plasma Tmax) [h] | Cmax ([1]; plasma) [ng/mL] | Plasma/Brain Ratio [1] | Compound | other results |
| --- | --- | --- | --- | --- | --- | --- | --- | --- | --- | --- | --- | --- |
| 99 | 71 | 14.6 | 4.11 | 0.25 | 536 | 527 | 2.06 | 0.25 | 227 | 0.13 | CN(C)C1CCN(C(=O)c2ccc(-c3cn4c(-c5ccc(C#N)cc5)cnc4cn3)cc2)CC1 [Entry 2] |  |
| 77 | 59 | 77.78 | 0.96 | 0.25 | 4190 | 4120 | 2.51 | 0.25 | 3160 | 0.01 | CN1CCN(C(=O)c2ccc(-c3ccc4ncc(-c5ccc(C#N)cc5)n4c3)cc2)CC1=O [Entry 3] |  |
|  | 184 | 20 |  | 8 | 632 | 614 | 2.38 | 0.25 | 223 | 0.3 | CN1CCN(C2CCN(C(=O)c3ccc(-c4ccc5ncc(-c6ccc(C#N)cc6)n5c4)cc3)CC2)CC1 [Entry 4] |  |
| 8951 | 8811 | 1724 | 4.28 |  | 76500 | 74700 | 4.33 |  | 13400 |  | N#Cc1ccc(-c2cnc3ccc(-c4ccc(C(=O)N5CCOCC5)cc4)nn23)cc1 [Entry 5] |  |
|  | 17 | 10 |  | 0.25 | 359 | 350 | 1.59 | 0.25 | 275 | 0.05 | N#Cc1ccc(-c2cnc3ccc(-c4ccc(C(=O)N5CCNCC5)cc4)nn23)cc1 [Entry 6] |  |
| 2516 | 2474 | 678 | 2.05 | 1 | 26000 | 26000 | 2.94 | 0.25 | 7360 |  | N#Cc1ccc(-c2cnc3ccc(-c4ccc(C(=O)N5CCOCC5)cc4)cn23)cc1 [Entry 7] |  |
| 29267 | 29166 | 3967 | 2.63 | 2 | 55100 | 54800 | 2.78 | 0.5 | 5970 | 0.53 | N#Cc1ccc(-c2cnn3ccc(-c4ccc(C(=O)N5CCOCC5)cc4)nc23)cc1 [Entry 8] |  |
| 161 | 156 | 106 | 0.76 | 0.5 | 5720 | 5720 | 1.47 | 0.25 | 3860 | 0.03 | CC(=O)Nc1cc(-c2ccc3ncc(-c4ccc(C#N)cc4)n3c2)ccc1C(=O)N1CCOCC1 [Entry 9] |  |
| 775 | 754 | 469 | 0.69 | 1 | 12800 | 12700 | 1.11 | 0.5 | 6400 | 0.06 | N#Cc1ccc(-c2cnc3cnc(-c4ccc(C(=O)N5CCOCC5)cc4)cn23)cc1 [Entry 10] |  |
|  |  |  |  |  |  |  |  |  |  |  | CN1CCN(C2CCN(C(=O)c3ccc(-c4ccc5ncc(-c6ccc(C#N)cc6)n5c4)cc3)CC2)CC1 [Example 133, 4-(6-(4-(4-(4-methylpiperazin-1-yl)piperidine-1-carbonyl)phenyl)imidazo[1,2-a]pyridin-3-yl)benzonitrile] | IC50 [2, 8]: < 1 µM; IC50 [3, 9]: 16 µM; IC50 [3, 10]: 23 µM; change of IC50 when treatment duration was extended from 48 hours to 6 days, K562 [3]: not influenced by the treatment duration; IC50 (MV-4-11 (leukemia); [11]): 1.5 µM; IC50 (MV-4-11 (leukemia); [12]): 2.8 µM; change of IC50 when treatment duration was extended from 48 hours to 6 days, D1.1 [4]: not influenced by the treatment duration; IC50 [4, 13]: 11.2 µM; IC50 [4, 14]: 15.8 µM; change of IC50 when treatment duration was extended from 48 hours to 6 days, P116.c139 [5]: decrease the IC50 by more than half-fold; IC50 [5, 15]: 4 µM; IC50 [5, 16]: 10.9 µM |
|  |  |  |  |  |  |  |  |  |  |  | CN1CCN(C(=O)c2ccc(-c3ccc4ncc(-c5ccc(O)cc5)n4c3)cc2)CC1 [Example 175, (4-(3-(4-hydroxyphenyl)imidazo[1,2-a]pyridin-6-yl)phenyl)(4-methylpiperazin-1-yl)methanone] | IC50 [3, 9]: 21.2 µM; IC50 [3, 10]: 18.2 µM; change of IC50 when treatment duration was extended from 48 hours to 6 days, K562 [3]: not influenced by the treatment duration; IC50 (MV-4-11 (leukemia); [11]): 0.3 µM; IC50 (MV-4-11 (leukemia); [12]): 0.9 µM; change of IC50 when treatment duration was extended from 48 hours to 6 days, D1.1 [4]: not influenced by the treatment duration; IC50 [4, 13]: 10.1 µM; IC50 [4, 14]: 12.3 µM; change of IC50 when treatment duration was extended from 48 hours to 6 days, P116.c139 [5]: decrease the IC50 by more than half-fold; IC50 [5, 15]: 5.7 µM; IC50 [5, 16]: 12.5 µM |
|  |  |  |  |  |  |  |  |  |  |  | N#Cc1ccc(-c2cnn3ccc(-c4ccc(C(=O)N5CCOCC5)cc4)nc23)cc1 [Example 185, 4-(5-(4-(morpholine-4-carbonyl)phenyl)pyrazolo [1,5-a]pyrimidin-3-yl)benzonitrile] | IC50 [2, 8]: < 1 µM |
|  |  |  |  |  |  |  |  |  |  |  | CC(=O)NC1CCN(C(=O)c2ccc(-c3ccn4ncc(-c5ccc(C#N)cc5)c4n3)cc2)CC1 [Example 186, N-(1-(4-(3-(4-cyanophenyl)pyrazolo[1,5-a]pyrimidin-5-yl)benzoyl)piperidin-4-yl)acetamide] | IC50 [2, 8]: < 1 µM |
|  |  |  |  |  |  |  |  |  |  |  | N#Cc1ccc(-c2cnn3ccc(-c4ccc(C(=O)N5CCOCC5)c(O)c4)nc23)cc1 [Example 187, 4-(5-(3-hydroxy-4-(morpholine-4-carbonyl)phenyl)pyrazolo [1,5-a]pyrimidin-3-yl)benzonitrile] | IC50 [2, 8]: < 1 µM |
|  |  |  |  |  |  |  |  |  |  |  | N#Cc1ccc(-n2cnc3ccc(-c4ccc(C(=O)N5CCOCC5)cc4)cc32)cc1 [Example 190, 4-(6-(4-(morpholine-4-carbonyl)phenyl)-1H-benzo[d]imidazol-1-yl)benzonitrile] | IC50 ([2]; HeLa, 2 h): < 1 µM |

| Compound | Brain AUC inf ([1]; brain) [ng·h/g] | Brain AUC last ([1]; brain) [ng·h/g] | Brain Cmax ([1]; brain) [ng/g] | half-life [1, 6] [h] | Tmax ([1]; brain, read-out: Brain Tmax) [h] | AUC(0-inf) ([1]; plasma) [ng·h/mL] | AUC(0-t) ([1]; plasma) [ng·h/mL] | half-life [1, 7] [h] | Tmax ([1]; plasma, read-out: Plasma Tmax) [h] | Cmax ([1]; plasma) [ng/mL] | Plasma/Brain Ratio [1] | other results |
| --- | --- | --- | --- | --- | --- | --- | --- | --- | --- | --- | --- | --- |
| CN1CCN(C(=O)c2ccc(-c3cn4c(-c5ccc(C#N)cc5)cnc4cn3)cc2)CC1 [Entry 1] | 625 | 520 | 290 | 1.39 | 0.5 | 7440 | 7420 | 3.02 | 0.25 | 2670 |  |  |
